Molecules are shown by their SMILES.

In general, IC50 refers to the concentration that inhibits the measured activity by half.

This experiment has as its target Tumor necrosis factor (Homo sapiens, UniProt P01375). Nature of the experiment: TNF-alpha RELEASE: Human peripheral blood mononuclear cells (PBMC) were isolated from fresh buffy coats by density centrifugation using lymphoprep tubes (Medinor). Frozen PBMC's were washed in serum free assay buffer (RPMI1640 with 25 mM HEPES, 1% pen/strep, […], 0.5% human serum albumin) and living cells counted. Lipopolysaccharide (1 microg/ml; SIGMA) was added to the cells which were then transferred to 384 well tissue culture plates (5×105 c/ml) containing titrated test compounds. The cells were incubated for 18 hours at 37° C. in serum free assay buffer and the level of TNFalpha in the supernatant was quantitated by AlphaLISA (PerkinElmer) by measuring fluorescence intensity at 615 nm.Results were expressed as IC50 values calculated from inhibition curves using as controls the secretion in LPS stimulated wells and the secretion in cells incubated with 10 microM of a PDE4 inhibitor reference compound.

Chain of Tumor necrosis factor (P01375 whole entry): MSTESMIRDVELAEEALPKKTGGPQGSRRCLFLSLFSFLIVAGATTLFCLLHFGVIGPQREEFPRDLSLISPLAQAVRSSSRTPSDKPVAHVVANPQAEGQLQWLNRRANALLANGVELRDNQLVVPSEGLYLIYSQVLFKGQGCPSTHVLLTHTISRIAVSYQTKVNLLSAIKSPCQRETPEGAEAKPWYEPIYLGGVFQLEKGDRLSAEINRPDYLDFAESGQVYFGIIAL

For `CC(=O)N1CC[C@@H](Nc2nc(N3CC(OC(=O)C4CCOCC4)C3)nc3c2[S@+]([O-])CC3)C1`, the IC50 was above 500 nM.

Values taken from ChEMBL document CHEMBL5729167, “Substituted dihydrothienopyrimidines and their use as phosphodiesterase inhibitors” (2022).
